# Assay results: PubChem BioAssay (NCI)
#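 A five-concentration, 48-hour dose response in 96-well plates underlies each endpoint, interpolated linearly between surrounding concentrations. Definition used: TGI = concentration required for complete inhibition of growth.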 Where a SMILES comes first, the peptide text is derived from it. [ ]: non-standard residue; d: D form. The star is where a group is joined. X28 = COC1=CC(=O)N(C(=O)[C@@H](O*)C(C)C)[C@H]1Cc1ccccc1; Bn2Val = CC(C)[C@@H](C(=O)*)N(Cc1ccccc1)Cc1ccccc1; NMeV = CN[C@H](C(=O)O)C(C)C; dNMeA = CN[C@H](C)C(=O)O
# Legend:
# Assay in all cases: growth of human tumour cells (NCI), 48 h
# [1] = test system: COLO 205 colon
# [2] = test system: HCT-15 colon
# [3] = test system: HOP-92 NSCLC
# [4] = test system: K-562 leukemia
# [5] = test system: M14 melanoma
# [6] = test system: MDA-N
# [7] = test system: NCI-H226 lung
# [8] = test system: OVCAR-8 ovarian
# [9] = test system: SF-539 CNS
# [10] = test system: SR leukemia
# [11] = test system: UACC-257 melanoma
structure (smiles),measurement,setting,value
Cc1ccc(S(=O)(=O)/N=C2/N(C)CCCS2(=O)=O)cc1,TGI,[1],> 100 µM
same,TGI,[2],> 100 µM
same,TGI,[3],> 100 µM
same,TGI,[4],> 100 µM
same,TGI,[5],> 100 µM
same,TGI,[6],> 100 µM
same,TGI,[7],> 100 µM
same,TGI,[8],> 100 µM
same,TGI,[9],> 100 µM
same,TGI,[10],> 100 µM
same,TGI,[11],> 100 µM
O=S(c1ccccc1)C1CC2CC3(CCC21O)OCCO3 (stereo unspecified),TGI,[1],> 100 µM
same,TGI,[2],> 100 µM
same,TGI,[3],> 100 µM
same,TGI,[4],> 100 µM
same,TGI,[5],> 100 µM
same,TGI,[6],> 100 µM
same,TGI,[7],> 100 µM
same,TGI,[8],> 100 µM
same,TGI,[10],> 100 µM
same,TGI,[11],> 100 µM
N#C/C(=C/n1c(=S)[nH]c2ccccc21)C(N)=O,TGI,[1],> 100 µM
same,TGI,[2],> 100 µM
same,TGI,[3],> 100 µM
same,TGI,[4],> 100 µM
same,TGI,[5],> 100 µM
same,TGI,[6],> 100 µM
same,TGI,[7],> 100 µM
same,TGI,[8],> 100 µM
same,TGI,[9],> 100 µM
same,TGI,[10],> 100 µM
same,TGI,[11],> 100 µM
COC1=CC(=O)N(C(=O)[C@@H](OC(=O)[C@@H](C)N(C)C(=O)[C@@H]2CCCN2C(=O)[C@H](C(C)C)N(C)C(=O)[C@@H](NC(=O)[C@H](C(C)C)N(Cc2ccccc2)Cc2ccccc2)C(C)C)C(C)C)[C@H]1Cc1ccccc1 (Bn2Val-V[NMeV]P[dNMeA]-X28),TGI,[1],> 100 µM
same,TGI,[2],> 100 µM
same,TGI,[3],> 100 µM
same,TGI,[4],> 100 µM
same,TGI,[5],> 100 µM
same,TGI,[6],> 100 µM
same,TGI,[7],> 100 µM
same,TGI,[8],> 100 µM
same,TGI,[9],> 100 µM
same,TGI,[10],> 100 µM
same,TGI,[11],> 100 µM
COc1ccc(C(=O)c2c(-c3ccccc3NC(=O)C(F)(F)F)[nH]c3ccccc23)cc1,TGI,[1],16.1 µM
same,TGI,[2],19.9 µM
same,TGI,[3],27.6 µM
same,TGI,[4],32.7 µM
same,TGI,[5],32.6 µM
same,TGI,[6],29.3 µM
same,TGI,[7],37.9 µM
same,TGI,[8],23.5 µM
same,TGI,[9],4.41 µM
same,TGI,[10],8.62 µM
same,TGI,[11],29.9 µM
COC(=O)CCCC1(CCCC(=O)OC)CCCCCCCCC(CCCC(=O)OC)(CCCC(=O)OC)C(=O)C1=O,TGI,[1],> 100 µM
same,TGI,[2],> 100 µM
same,TGI,[3],39 µM
same,TGI,[4],37.8 µM
same,TGI,[5],> 100 µM
same,TGI,[6],> 100 µM
same,TGI,[7],> 100 µM
same,TGI,[8],> 100 µM
same,TGI,[9],61.3 µM
same,TGI,[10],85.5 µM
same,TGI,[11],> 100 µM
COC1=CC(=O)c2c(cc(COP(N)(=O)N(CCCl)CCCl)n2C)C1=O (stereo unspecified),TGI,[1],3.08 µM
same,TGI,[2],3.54 µM
same,TGI,[3],6.66 µM
same,TGI,[4],36.9 µM
same,TGI,[5],2.74 µM
same,TGI,[6],4.09 µM
same,TGI,[7],1.32 µM
same,TGI,[8],3.2 µM
same,TGI,[9],2.19 µM
same,TGI,[10],1.31 µM
same,TGI,[11],14.2 µM
